Experimental data as given in patent US9452217B2, “Methods for potentiating immune response for the treatment of infectious diseases and cancer” (Nitor Therapeutics, priority 2013, dated 2016).

Experiments:
human TLR8 = target: T1, human TLR8 (Homo sapiens, UniProt Q9NR97); test: TLR ligand screening: NF-κB activation (SEAP reporter) in HEK293 cells expressing TLR8; type: cell-based; conditions: one concentration: NTR001 10 uM, Inosine 100 uM; FIG. 2
T1 construct: expressed in transfected cells; host or cells: HEK293
T1 sequence (Q9NR97 27-1041): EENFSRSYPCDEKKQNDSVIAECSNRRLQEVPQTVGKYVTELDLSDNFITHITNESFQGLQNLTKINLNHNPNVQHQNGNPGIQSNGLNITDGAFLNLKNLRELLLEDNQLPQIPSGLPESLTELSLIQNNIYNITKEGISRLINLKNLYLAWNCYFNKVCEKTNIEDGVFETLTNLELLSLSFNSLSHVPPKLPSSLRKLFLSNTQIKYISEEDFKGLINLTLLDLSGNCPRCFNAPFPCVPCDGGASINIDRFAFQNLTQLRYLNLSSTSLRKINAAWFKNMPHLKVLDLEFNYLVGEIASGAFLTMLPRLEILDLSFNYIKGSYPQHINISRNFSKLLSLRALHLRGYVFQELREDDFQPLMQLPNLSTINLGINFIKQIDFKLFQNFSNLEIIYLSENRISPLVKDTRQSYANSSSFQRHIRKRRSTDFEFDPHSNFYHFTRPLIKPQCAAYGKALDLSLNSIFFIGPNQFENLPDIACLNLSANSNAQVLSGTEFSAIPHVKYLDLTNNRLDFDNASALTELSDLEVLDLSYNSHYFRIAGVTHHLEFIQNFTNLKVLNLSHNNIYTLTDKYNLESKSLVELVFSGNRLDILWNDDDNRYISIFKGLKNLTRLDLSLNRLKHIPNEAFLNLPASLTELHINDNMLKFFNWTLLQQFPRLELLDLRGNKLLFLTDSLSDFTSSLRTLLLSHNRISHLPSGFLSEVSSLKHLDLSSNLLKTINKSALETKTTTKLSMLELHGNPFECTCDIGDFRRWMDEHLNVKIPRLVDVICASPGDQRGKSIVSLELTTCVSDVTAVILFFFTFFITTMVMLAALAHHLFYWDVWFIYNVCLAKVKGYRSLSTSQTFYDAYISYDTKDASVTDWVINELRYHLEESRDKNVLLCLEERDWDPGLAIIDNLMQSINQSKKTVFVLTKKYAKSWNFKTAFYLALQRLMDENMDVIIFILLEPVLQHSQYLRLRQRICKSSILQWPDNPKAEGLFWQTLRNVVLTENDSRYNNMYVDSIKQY
Method: (§1) Method: TLR stimulation is tested by assessing NF-κB activation in HEK293 cells expressing a given TLR. The Secreted Embryonic Alkaline Phosphatase (SEAP) reporter is under the control of a promoter inducible by the transcription factor NF-κB. This reporter gene allows the monitoring of signaling through the TLR, based on the activation of NF-κB. The compounds are evaluated at one concentration and compared to control ligands. This step is performed in triplicate.

human TLR7 = target: T2, human TLR7 (Homo sapiens, UniProt Q9NYK1); test: TLR ligand screening: NF-κB activation (SEAP reporter) in HEK293 cells expressing TLR7; type: cell-based; conditions: one concentration: NTR001 10 uM, Inosine 100 uM; FIG. 2
T2 construct: expressed in transfected cells; host or cells: HEK293
T2 sequence (Q9NYK1 27-1049): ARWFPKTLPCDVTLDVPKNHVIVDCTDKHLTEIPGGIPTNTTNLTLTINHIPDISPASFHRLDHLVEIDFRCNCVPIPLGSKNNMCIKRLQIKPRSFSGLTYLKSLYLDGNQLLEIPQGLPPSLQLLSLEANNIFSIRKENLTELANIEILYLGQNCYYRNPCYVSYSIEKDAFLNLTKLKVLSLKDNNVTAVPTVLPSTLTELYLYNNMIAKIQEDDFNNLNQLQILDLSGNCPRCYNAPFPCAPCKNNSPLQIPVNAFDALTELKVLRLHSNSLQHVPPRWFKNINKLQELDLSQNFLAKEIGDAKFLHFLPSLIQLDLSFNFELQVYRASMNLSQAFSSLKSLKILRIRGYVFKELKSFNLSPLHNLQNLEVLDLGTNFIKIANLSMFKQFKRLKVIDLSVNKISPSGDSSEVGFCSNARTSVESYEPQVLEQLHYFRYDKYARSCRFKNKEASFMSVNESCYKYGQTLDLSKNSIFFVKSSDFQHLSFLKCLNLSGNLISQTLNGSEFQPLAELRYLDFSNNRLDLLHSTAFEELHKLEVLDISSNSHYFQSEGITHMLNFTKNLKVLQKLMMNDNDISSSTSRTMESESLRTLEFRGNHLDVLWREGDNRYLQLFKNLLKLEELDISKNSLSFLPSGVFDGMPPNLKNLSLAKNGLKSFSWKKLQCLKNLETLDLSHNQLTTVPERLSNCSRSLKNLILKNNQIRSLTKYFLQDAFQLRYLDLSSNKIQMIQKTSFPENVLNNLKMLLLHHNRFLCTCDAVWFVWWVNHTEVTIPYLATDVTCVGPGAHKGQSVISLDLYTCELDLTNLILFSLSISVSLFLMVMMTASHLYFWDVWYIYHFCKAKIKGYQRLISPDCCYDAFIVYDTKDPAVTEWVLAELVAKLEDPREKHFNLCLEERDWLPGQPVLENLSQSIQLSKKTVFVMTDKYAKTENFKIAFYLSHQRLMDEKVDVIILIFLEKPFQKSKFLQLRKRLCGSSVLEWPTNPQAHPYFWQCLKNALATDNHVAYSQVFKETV
Method: as §1

OC[C@H]1O[C@@H](n2cnc3c(O)ncnc32)[C@H](O)[C@@H]1O [Inosine]
stimulatory effect on human TLR8 (human TLR8): do not exhibit a stimulatory effect | stimulatory effect on human TLR7 (human TLR7): do not exhibit a stimulatory effect

O=c1[nH]cnc2c([C@@H]3N[C@H](CO)[C@@H](O)[C@H]3O)c[nH]c12 [NTR001, 7-[(2S,3S,4R,5R)-3,4-dihydroxy-5-(hydroxymethyl)-2-pyrrolidinyl]-1,5-dihydro-4H-pyrrolo [3,2-d]pyrimidin-4-one]
stimulatory effect on human TLR8 (human TLR8): do not exhibit a stimulatory effect | stimulatory effect on human TLR7 (human TLR7): do not exhibit a stimulatory effect
